The target of this assay is T1, Glucocorticoid Receptor (GR) (Homo sapiens, UniProt P04150).
T1 construct: purchased Invitrogen P2893
T1 sequence (P04150 1-777): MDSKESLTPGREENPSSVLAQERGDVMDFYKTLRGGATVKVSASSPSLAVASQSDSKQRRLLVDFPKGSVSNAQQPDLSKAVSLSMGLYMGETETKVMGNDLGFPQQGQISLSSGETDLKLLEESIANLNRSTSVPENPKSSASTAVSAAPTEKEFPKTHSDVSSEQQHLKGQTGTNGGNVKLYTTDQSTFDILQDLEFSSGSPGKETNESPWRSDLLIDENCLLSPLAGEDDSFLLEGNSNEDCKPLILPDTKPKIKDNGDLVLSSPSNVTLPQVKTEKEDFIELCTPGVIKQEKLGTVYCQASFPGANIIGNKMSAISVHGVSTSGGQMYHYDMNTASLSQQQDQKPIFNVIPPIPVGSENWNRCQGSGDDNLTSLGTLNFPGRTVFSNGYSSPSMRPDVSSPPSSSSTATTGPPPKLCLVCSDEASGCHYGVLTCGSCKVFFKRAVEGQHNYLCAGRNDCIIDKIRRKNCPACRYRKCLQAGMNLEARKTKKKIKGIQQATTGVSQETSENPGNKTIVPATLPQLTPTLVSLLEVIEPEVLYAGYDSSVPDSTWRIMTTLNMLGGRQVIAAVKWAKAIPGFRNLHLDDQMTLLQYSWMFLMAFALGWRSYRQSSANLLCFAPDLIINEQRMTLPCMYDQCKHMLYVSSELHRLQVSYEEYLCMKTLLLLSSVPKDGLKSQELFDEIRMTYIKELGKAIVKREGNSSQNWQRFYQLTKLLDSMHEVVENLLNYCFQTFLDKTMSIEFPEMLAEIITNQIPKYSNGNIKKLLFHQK
Kind of assay: GR Florescence Polarization Assay (PolarScreen Glucocorticoid Receptor Competitor Assay, Red). The conditions noted are these: Fluorescense polarization binding ranges; competition with fluorescent glucocorticoid, incubated overnight at 4° C. The essentials: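 Competitive fluorescence polarization using fluorescent glucocorticoid tracer and human GR in kit buffer. Compounds serially diluted 1:4 in DMSO, incubated with tracer and GR overnight at 4 °C before polarization read.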

Bounds are passed on as bounds.

In turn, `CC[C@@]1(O)CC[C@]2(Cc3ccccc3)c3ccc(C(=O)Nc4cccnc4C)cc3CCC[C@@H]2C1.CC[C@]1(O)CC[C@@]2(Cc3ccccc3)c3ccc(C(=O)Nc4cccnc4C)cc3CCC[C@H]2C1` [Example 13, (7aS,9S,11aS)-11a-benzyl-9-ethyl-9-hydroxy-6,7,7a,8,9,10,11,11a-octahydro-5H-dibenzo[a,c]cycloheptene-3-carboxylic acid (2-methyl-pyridin-3-yl)-amide; compound with (7aR,9R,11aR)-11a-benzyl-9-ethyl-9-hydroxy-6,7,7a,8,9,10,11,11a-octahydro-5H-dibenzo[a,c]cycloheptene-3-carboxylic acid (2-methyl-pyridin-3-yl)-amide] came in with a half-maximal inhibitory concentration (IC50) of 100 to 1000 nM.

Turning to `Cc1ncccc1NC(=O)c1ccc2c(c1)CCC[C@H]1CC(=O)CC[C@@]21Cc1ccccc1` (racemic) [Example 11, (7aS,11aS)-11a-Benzyl-9-oxo-6,7,7a,8,9,10,11,11a-octahydro-5H-dibenzo[a,c]cycloheptene-3-carboxylic acid (2-methyl-pyridin-3-yl)-amide; compound with (7aR,11aR)-11a-benzyl-9-oxo-6,7,7a,8,9,10,11,11a-octahydro-5H-dibenzo[a,c]cycloheptene-3-carboxylic acid (2-methyl-pyridin-3-yl)-amide], the half-maximal inhibitory concentration (IC50) was under 100 nM.

In the case of `Cc1ncccc1NC(=O)c1ccc2c(c1)CCC[C@H]1C[C@@](O)(COC(C)C)CC[C@@]21Cc1ccccc1` (racemic) [Example 97], the half-inhibitory concentration (IC50) was under 100 nM.

On to `CC[C@@]12CC[C@](O)(c3ccccc3)C[C@@H]1CCOc1cc(C(=O)Nc3cccnc3C)ccc12` (racemic) [Example 134, (7aS,9R,11aR)-11a-Ethyl-9-hydroxy-N-(2-methylpyridin-3-yl)-9-phenyl-6,7,7a,8,9,10,11,11a-octahydrodibenzo[b,d]oxepine-3-carboxamide; compound with (7aR,9S,11aS)-11a-ethyl-9-hydroxy-N-(2-methylpyridin-3-yl)-9-phenyl-6,7,7a,8,9,10,11,11a-octahydrodibenzo[b,d]oxepine-3-carboxamide], for which the IC50 is under 100 nM.

The compound `CC[C@@]1(O)CC[C@@]2(Cc3ccccc3)c3ccc(C(=O)NCc4cccnc4C)cc3CCC[C@H]2C1` [Example 83, (7aS,9R,11aS)-11a-Benzyl-9-ethyl-9-hydroxy-6,7,7a,8,9,10,11,11a-octahydro-5H-dibenzo[a,c]cycloheptene-3-carboxylic acid (2-methyl-pyridin-3-ylmethyl)-amide] gave a half-maximal inhibitory concentration (IC50) of under 100 nM.

`Cc1ncccc1NC(=O)c1ccc2c(c1)CCC[C@@H]1C[C@](O)(CC#N)CC[C@]21Cc1ccccc1` [Example 67] yielded an IC50 of 100 to 1000 nM.

As to `O=C1C=C2CCCc3cc(O)ccc3C2(Cc2ccccc2)CC1` (stereo not drawn) [Example 2, 11b-Benzyl-9-hydroxy-1,2,5,6,7,11b-hexahydro-dibenzo[a,c]cyclohepten-3-one], the IC50 lay in the range of 100 to 1000 nM.

For `Cc1ncccc1NC(=O)c1ccc2c(c1)CCC[C@H]1C[C@@H](O)CC[C@@]21Cc1ccccc1` (racemic) [Example 16, (7aS,9S,11aS)-11a-Benzyl-9-hydroxy-6,7,7a,8,9,10,11,11a-octahydro-5H-dibenzo[a,c]cycloheptene-3-carboxylic acid (2-methyl-pyridin-3-yl)-amide; compound with (7aR,9R,11aR)-11a-benzyl-9-hydroxy-6,7,7a,8,9,10,11,11a-octahydro-5H-dibenzo[a,c]cycloheptene-3-carboxylic acid (2-methyl-pyridin-3-yl)-amide], the half-inhibitory concentration (IC50) lay in the range of 100 to 1000 nM.

On to `CCC[C@@]1(O)CC[C@@]2(CC)c3ccc(C(=O)Nc4cccnc4C)cc3C(=O)CC[C@H]2C1` (single isomer, unassigned) [Example 61], for which the 50% inhibitory concentration (IC50) lay within 100 to 1000 nM.

`CC[C@@]1(O)CC[C@@]2(Cc3ccccc3)c3ccc(C(=O)Nc4cccnc4C)cc3C(=O)CC[C@H]2C1` (single isomer, unassigned) [Example 24] gave an IC50 of under 100 nM.

In turn, `CC[C@@]1(O)CC[C@@]2(Cc3ccccc3)c3ccc(C(=O)Nc4cccnc4C)cc3COC[C@H]2C1` [Example 111, (7aS,9R,11aS)-11a-Benzyl-9-ethyl-9-hydroxy-N-(2-methylpyridin-3-yl)-5,7,7a,8,9,10,11,11a-octahydrodibenzo[c,e]oxepine-3-carboxamide] registered a concentration for half-maximal inhibition (IC50) of under 100 nM.

`O=C1CC[C@@]2(Cc3ccccc3)C(=O)CCCC[C@H]2C1.O=C1CC[C@]2(Cc3ccccc3)C(=O)CCCC[C@@H]2C1` [Example 36, (4aS,9aS)-4a-Benzyl-octahydro-benzocycloheptene-2,5-dione; compound with (4aR,9aR)-4a-benzyl-octahydro-benzocycloheptene-2,5-dione] returned a half-maximal inhibitory concentration (IC50) of over 10000 nM.

`CC[C@@]1(O)CC[C@@]2(Cc3ccccc3)c3nn(C)cc3CCC[C@H]2C1.CC[C@]1(O)CC[C@]2(Cc3ccccc3)c3nn(C)cc3CCC[C@@H]2C1` [Example 40, (6aS,8R,10aS)-10a-Benzyl-8-ethyl-2-methyl-2,4,5,6,6a,7,8,9,10,10a-decahydro-1,2-diaza-benzo[e]azulen-8-ol; compound with (6aR,8S,10aR)-10a-benzyl-8-ethyl-2-methyl-2,4,5,6,6a,7,8,9,10,10a-decahydro-1,2-diaza-benzo[e]azulen-8-ol] displayed an IC50 of over 10000 nM.

The compound `CC[C@]1(O)CC[C@]2(Cc3ccccc3)c3ccc(C(=O)Nc4cccnc4C)cc3C(=O)CC[C@@H]2C1` (single isomer, unassigned) [Example 25] yielded an IC50 of 1000 to 10000 nM.

The compound `Cc1ncccc1NC(=O)c1ccc2c(c1)CCC[C@H]1C[C@@](O)(CC#N)CC[C@@]21Cc1ccccc1` (racemic) [Example 65] yielded an IC50 of under 100 nM.

As for `Cc1ncccc1NC(=O)c1ccc2c(c1)CCC[C@H]1C[C@@](O)(COCC(F)(F)F)CC[C@@]21Cc1ccccc1` (racemic) [Example 95], the IC50 is under 100 nM.

Consider `CCOC[C@@]1(O)CC[C@@]2(Cc3ccccc3)c3ccc(C(=O)Nc4cccnc4C)cc3CCC[C@H]2C1` [Example 93], for which the concentration for half-maximal inhibition (IC50) was under 100 nM.

Compound `CC[C@@]1(O)CC[C@@]2(Cc3ccccc3)c3ccc(C(=O)Nc4cccnc4C)cc3CCC[C@H]2C1` (single isomer, unassigned) [Example 14] yielded an IC50 of under 100 nM.

Turning to `Cc1ncccc1NC(=O)c1ccc2c(c1)C(=O)CC[C@@H]1C[C@@](O)(C(F)(F)F)CC[C@@]21Cc1ccccc1` [Example 118, (7aR,9R,11aS)-11a-Benzyl-9-hydroxy-5-oxo-9-trifluoromethyl-6,7,7a,8,9,10,11,11a-octahydro-5H-dibenzo[a,c]cycloheptene-3-carboxylic acid (2-methyl-pyridin-3-yl)-amide], the IC50 was under 100 nM.

Compound `CCC[C@@]1(O)CC[C@@]2(CC)c3ccc(C(=O)Nc4cccnc4C)cc3OCC[C@H]2C1` (single isomer, unassigned) [Example 121] registered a 50% inhibitory concentration (IC50) of under 100 nM.

Compound `CCC[C@@]12CC[C@](O)(CC)C[C@@H]1CCCc1cc(C(=O)Nc3cccnc3C)ccc12.CCC[C@]12CC[C@@](O)(CC)C[C@H]1CCCc1cc(C(=O)Nc3cccnc3C)ccc12` [Example 26, (7aR,9S,11aS)-9-Ethyl-9-hydroxy-11a-propyl-6,7,7a,8,9,10,11,11a-octahydro-5H-dibenzo[a,c]cycloheptene-3-carboxylic acid (2-methyl-pyridin-3-yl)-amide; compound with (7aS,9R,11aR)-9-ethyl-9-hydroxy-11a-propyl-6,7,7a,8,9,10,11,11a-octahydro-5H-dibenzo[a,c]cycloheptene-3-carboxylic acid (2-methyl-pyridin-3-yl)-amide] displayed a half-inhibitory concentration (IC50) of under 100 nM.

In the case of `CC[C@@]1(O)CC[C@@]2(Cc3ccccc3)c3ccc(C(=O)NC4=NC(=O)CN4C)cc3CCC[C@H]2C1` [Example 85], the IC50 was under 100 nM.

With `Cc1ncccc1NC(=O)c1ccc2c(c1)COC[C@@H]1C[C@@](O)(C(F)(F)F)CC[C@@]21Cc1ccccc1` [Example 116, (7aR,9R,11aS)-11a-Benzyl-9-hydroxy-N-(2-methylpyridin-3-yl)-9-(trifluoromethyl)-5,7,7a,8,9,10,11,11a-octahydrodibenzo[c,e]oxepine-3-carboxamide], the 50% inhibitory concentration (IC50) lay within 100 to 1000 nM.

Compound `CC[C@@]12CC[C@](O)(CC#N)C[C@@H]1CCCc1cc(C(=O)Nc3cccnc3C)ccc12` (racemic) [Example 64, (7aS,9R,11aR)-9-Cyanomethyl-11a-ethyl-9-hydroxy-6,7,7a,8,9,10,11,11a-octahydro-5H-dibenzo[a,c]cycloheptene-3-carboxylic acid (2-methyl-pyridin-3-yl)-amide; compound with (7aR,9S,11aS)-9-cyanomethyl-11a-ethyl-9-hydroxy-6,7,7a,8,9,10,11,11a-octahydro-5H-dibenzo[a,c]cyclo heptene-3-carboxylic acid (2-methyl-pyridin-3-yl)-amide] registered an IC50 of 100 to 1000 nM.
